According to the NIST ThermoML archive (doi:10.1016/j.jct.2016.03.026):

Assay: xn = mol fraction of the nth substance listed
Details: 273.15 K, Fluid (supercritical or subcritical phases), x1 = 0.97; for mass density: Vibrating tube method

O=C=O [carbon dioxide] + CO
Details | mass density [kg/m3]
14050 kPa | 992.7
14075 kPa | 992.85
14100 kPa | 992.93
14125 kPa | 993.06
14150 kPa | 993.17
14175 kPa | 993.26
14200 kPa | 993.38
14225 kPa | 993.5
14250 kPa | 993.58
14275 kPa | 993.7
14300 kPa | 993.82
14325 kPa | 993.9
14350 kPa | 994
14375 kPa | 994.12
14400 kPa | 994.23
14425 kPa | 994.35
14450 kPa | 994.42
14475 kPa | 994.54
14500 kPa | 994.65
14525 kPa | 994.75
14550 kPa | 994.85
14575 kPa | 994.96
14600 kPa | 995.07
14625 kPa | 995.18
14650 kPa | 995.29
14675 kPa | 995.37
14700 kPa | 995.5
14725 kPa | 995.62
14750 kPa | 995.7
14775 kPa | 995.81
14800 kPa | 995.94
14825 kPa | 996.02
14850 kPa | 996.12
14875 kPa | 996.27
14900 kPa | 996.34
14925 kPa | 996.43
14950 kPa | 996.51
14975 kPa | 996.65
15000 kPa | 996.75
15025 kPa | 996.84
15050 kPa | 996.94
15075 kPa | 997.08
15100 kPa | 997.16
15125 kPa | 997.24
15150 kPa | 997.37
15175 kPa | 997.49
15200 kPa | 997.57
15225 kPa | 997.66
15250 kPa | 997.8
15275 kPa | 997.89
15300 kPa | 997.98
15325 kPa | 998.14
15350 kPa | 998.19
15375 kPa | 998.3
15400 kPa | 998.38
15425 kPa | 998.5
15450 kPa | 998.63
15475 kPa | 998.71
15500 kPa | 998.79
15525 kPa | 998.89
15550 kPa | 999.03
15575 kPa | 999.11
15600 kPa | 999.22
15625 kPa | 999.34
15650 kPa | 999.41
15675 kPa | 999.52
15700 kPa | 999.63
15725 kPa | 999.76
15750 kPa | 999.85
15775 kPa | 999.93
15800 kPa | 1000.03
15825 kPa | 1000.09
15850 kPa | 1000.25
15875 kPa | 1000.33
15900 kPa | 1000.44
15925 kPa | 1000.5
15950 kPa | 1000.59
15975 kPa | 1000.74
16000 kPa | 1000.82
16025 kPa | 1000.92
16050 kPa | 1001.03
16075 kPa | 1001.14
16100 kPa | 1001.23
16125 kPa | 1001.34
16150 kPa | 1001.44
16175 kPa | 1001.55
16200 kPa | 1001.64
16225 kPa | 1001.73
16250 kPa | 1001.84
16275 kPa | 1001.95
16300 kPa | 1002.05
16325 kPa | 1002.16
16350 kPa | 1002.26
16375 kPa | 1002.35
16400 kPa | 1002.44
16425 kPa | 1002.55
16450 kPa | 1002.64
16475 kPa | 1002.73
16500 kPa | 1002.82
16525 kPa | 1002.92
16550 kPa | 1003.07
16575 kPa | 1003.15
16600 kPa | 1003.23
16625 kPa | 1003.31
16650 kPa | 1003.43
16675 kPa | 1003.55
16700 kPa | 1003.63
16725 kPa | 1003.75
16750 kPa | 1003.86
16775 kPa | 1003.93
16800 kPa | 1004.01
16825 kPa | 1004.09
16850 kPa | 1004.25
16875 kPa | 1004.31
16900 kPa | 1004.4
16925 kPa | 1004.53
16950 kPa | 1004.6
16975 kPa | 1004.73
17000 kPa | 1004.82
17025 kPa | 1004.89
17050 kPa | 1005.04

Details | speed of sound [m/s]
14900 kPa, Frequency=5 MHz, Pulse-echo method | 688.9
